One compound from patent US20160038459A1, “COMPOSITIONS AND METHODS FOR THE TREATMENT OF NATAL AND PRE-NATAL CONDITIONS WITH ALPHA-TOCOPHEROL” (Northwestern University, priority 2014, published 2016) can be followed below.

The structures appear in SMILES notation.

The subject of series [1] is OVA-challenged pups from allergic mothers. Nature of the series: Maternal γ-tocopherol supplementation of allergic mothers, suboptimal OVA challenge of pups. In kind it is in vivo, C57BL/6 mice. To be noted: for numbers of IRF4+CD11b+CD11c+ dendritic cells in pup lung: OVA-challenged pups from allergic mothers; for inflammatory mediators in OVA-treated pup lungs: protein array and ELISA of minced lung culture supernatants. The protocol: (§1) C57BL/6 female mice were sensitized with OVA/alum and challenged with OVA (150 μg) as in the timeline below. Then, the cages were supplied with basal diet (45 mg γ-tocopherol/kg diet) or γ-tocopherol supplemented diets (250 mg γ-tocopherol/kg diet) and males were introduced for breeding. The pups were administered a suboptimal dose of OVA/alum (i.e., one i.p. with OVA/alum and 3 challenges for 10 min with 3% OVA as previously described (Am J Respir Cell Mol Biol 2011. 44: 285 and Am J PhysiolLung Cell MolPhysiol. 2014, 15; 307:L482-96; both of which are herein incorporated by reference in their entireties).
On the technique in general: An ELISA detects its analyte on a solid surface through an enzyme-linked reagent.

Series [2] is described as follows: Tissue γ-tocopherol after maternal γ-tocopherol-supplemented diet. In kind it is in vivo, C57BL/6 mice. The protocol: as §1
Series [3] in a line: Liver tocopherol measurement by HPLC with electrochemical detection. To be noted: all groups of the D-α-tocopherol diet experiment (data not shown). In kind it is in vivo, C57BL/6 mice. The protocol: Diets or livers were weighed and homogenized in absolute ethanol with 5% ascorbic acid on ice. The internal standard tocol is added to each […] to determine recovery. The homogenate or plasma was extracted with an equal volume of hexane with 0.37 wt/100 wt butylated hydroxytoluene to prevent oxidation and increase recovery of tocopherol. The samples were vortexed and then centrifuged for 10 min at 9,000 g at 4° C. The hexane layer was dried under nitrogen and stored at −20° C. The samples were reconstituted in methanol, and then tocopherols were separated using a reverse-phase C18 HPLC column (Hewlett Packard) and HPLC (Waters) with 99% methanol-1% water as a mobile phase with detection with an electrochemical detector (potential 0.7 V) (Waters).

In series [4] the test system is bone marrow-derived DCs co-cultured with CD4+ T cells. In words: Bone marrow-derived DCs co-cultured 48 hours with purified CD4+ T cells. In kind it is cell-based. To be noted: 2 μM γ-T; 48 hours co-culture (not shown). The protocol: FIGS. 17A-C show α-T and γ-T have opposing effects in regulation of DC development and function in vitro. FIGS. 17A and B show results from bone marrow from postnatal day 10 neonate (with basal diet) that was cultured with GM-CSF and with 80 μM αT (FIG. 17B) or 2 μM γT (FIG. 17A) for 8 days and analyzed for DC subsets by immunolabeling/flow cytometry. *, p<0.05 compared to DMSO group. **, p<0.05 compared to indicated group. […] Expression by qPCR. There was no effect on cell viability (not shown). n=3. **, p<0.05 compared to all other groups. *, p<0.05 compared to DMSO group.

Setting [5] is: 250 mg γ-tocopherol/kg maternal diet.
Where [6] appears, read: 250 mg γ-tocopherol/kg maternal diet, listed as γT.
Where [7] appears, read: 250 mg γ-tocopherol/kg maternal diet, allergic mothers.

As to `Cc1c(O)cc2c(c1C)O[C@](C)(CCC[C@H](C)CCC[C@H](C)CCCC(C)C)CC2` [γ-tocopherol], in series [1] (setting [5]), the “number of BAL leukocytes in OVA-challenged pups from allergic mothers” value is “increases”, the “number of pups from supplemented allergic mothers” value is given as “fewer pups”, the “numbers of IRF4+CD11b+CD11c+ dendritic cells in pup lung” value is recorded as “increases” and the “inflammatory mediators in OVA-treated pup lungs” value is recorded as “increases”. Also, the “pup responses to allergen challenge” value in series [1] (250 mg γ-tocopherol/kg maternal diet during pregnancy/lactation, allergic mothers) is “elevated”. Moreover, in series [1] (setting [6]), the “numbers of IRF4+CD11b+CD11c+ dendritic cells in pup lung” value is given as “elevated numbers” and the “inflammatory mediators in OVA-treated pup lungs” value is given as “increased”. Further, in series [1] (setting [7]), the “numbers of CD11b expressing subsets of CD11c dendritic cells in pup lung” value is “increased numbers” and the “numbers of pup lung eosinophils” value is given as “increased numbers”. For the same compound, the “number of allergic mothers with pups” value in series [1] (250 mg γ-tocopherol/kg maternal diet, percentage of mated females that had pups) is on record as “reduced”. Besides, in series [2], the “tissue γ-tocopherol in mothers” value is “elevates” and the “tissue γ-tocopherol in pups” value was “elevates”. Also, the “liver γ-tocopherol” value in series [3] was < 0.003 μg γ-tocopherol/g liver tissue. In addition, the cell viability entry in series [4] is “no effect”.
